Reference: article PMC10510716

Columns and labels:
[1] = Paal-Knorr pyrrole formation between a side-chain 1,4-diketone (DOP1, unmasked from 5-methylfuran in TFA/m-cresol 9:1) and a side-chain hydrazide (Nu2) or aminooxy group (Nu5); crude redissolved in mQ water; settings: the molecule shown is the open-chain precursor, pH ~2.5, 5.0 mM
[2] = Paal-Knorr-like closure of a side-chain 1,4-diketone (DOP, unmasked from 5-substituted furan in TFA/m-cresol 9:1) with a side-chain alkylhydrazine (Nu1), then air oxidation to a pyridazinium staple; crude redissolved in mQ water, pH adjusted to ~7.5; settings: the molecule shown is the open-chain precursor, pH ~7.5, 5.0 mM

## CC(=O)CCC(=O)CCC(=O)NCCC[C@H](NC(C)=O)C(=O)N[C@@H](Cc1c[nH]c2ccccc12)C(=O)N[C@@H](CCCNC(=N)N)C(=O)NCC(=O)N[C@@H](CC(=O)O)C(=O)N[C@@H](Cc1ccc(O)cc1)C(=O)N[C@@H](CO)C(=O)N[C@@H](CCCNC(=O)CON)C(N)=O [Ac-Orn(4,7-dioxooctanoyl)*-W-R-G-D-Y-S-Orn(COCH2ONH2)*-NH2]
[1]; 38-membered ring
  ring closure, overall yield: 5.2%

## CC[C@H](C)[C@H](NC(=O)[C@H](CCCNC(=O)CCC(=O)CCC(C)=O)NC(=O)[C@H](CCCNC(=N)N)NC(=O)CNC(=O)[C@H](CCCCN)NC(=O)[C@H](CC(C)C)NC(=O)[C@H](Cc1c[nH]cn1)NC(=O)CNC(=O)[C@@H]1CCCN1C(C)=O)C(=O)NCC(=O)N[C@@H](CC(C)C)C(=O)N[C@@H](Cc1c[nH]c2ccccc12)C(=O)N[C@@H](Cc1ccc(O)cc1)C(=O)N[C@@H](C)C(=O)N[C@@H](CCCNC(=O)CCC(=O)NN)C(=O)N[C@@H](CCCCN)C(=O)N[C@@H](CCC(N)=O)C(=O)NCC(=O)N[C@@H](CCC(N)=O)C(=O)N[C@@H](CCCCN)C(=O)N[C@@H](CC(N)=O)C(=O)N[C@@H](CCCCN)C(N)=O
[1]; 40-membered ring
  ring closure, overall yield: 12.6%

## CC[C@H](C)[C@H](NC(=O)[C@H](CCC(=O)O)NC(=O)[C@H](CCCNC(=N)N)NC(=O)CNC(=O)[C@H](CCCCN)NC(=O)[C@H](CC(C)C)NC(=O)[C@H](Cc1c[nH]cn1)NC(=O)CNC(=O)[C@@H]1CCCN1C(C)=O)C(=O)NCC(=O)N[C@@H](CC(C)C)C(=O)N[C@@H](Cc1c[nH]c2ccccc12)C(=O)N[C@@H](Cc1ccc(O)cc1)C(=O)N[C@@H](C)C(=O)N[C@@H](CCCNC(=O)CCC(=O)NN)C(=O)N[C@@H](CCCCN)C(=O)N[C@@H](CCC(N)=O)C(=O)NCC(=O)N[C@@H](CCCNC(=O)CCC(=O)CCC(C)=O)C(=O)N[C@@H](CCCCN)C(=O)N[C@@H](CC(N)=O)C(=O)N[C@@H](CCCCN)C(N)=O
[1]; 31-membered ring
  ring closure, overall yield: 8.24%

## CC(=O)CCC(=O)CCC(=O)NCCC[C@H](NC(=O)[C@H](Cc1ccc(O)cc1)NC(C)=O)C(=O)N[C@@H](CCCNC(=N)N)C(=O)NCC(=O)N[C@@H](CC(=O)O)C(=O)N[C@@H](CCCNC(=O)CON)C(=O)N[C@@H](CO)C(=O)N[C@@H](Cc1c[nH]c2ccccc12)C(N)=O [Ac-Y-Orn(4,7-dioxooctanoyl)*-R-G-D-Orn(COCH2ONH2)*-S-W-NH2]
[1]; 29-membered ring
  ring closure, overall yield: 8.1%

## CC(=O)CCC(=O)CCC(=O)NCCC[C@H](NC(=O)[C@H](Cc1ccc(O)cc1)NC(C)=O)C(=O)N[C@@H](CCCNC(=N)N)C(=O)NCC(=O)N[C@@H](CC(=O)O)C(=O)N[C@@H](CCCNC(=O)CCC(=O)NN)C(=O)N[C@@H](CO)C(=O)N[C@@H](Cc1c[nH]c2ccccc12)C(N)=O
[1]; 31-membered ring
  ring closure, overall yield: 2.3%

## CC[C@H](C)[C@H](NC(=O)[C@H](CCCNC(=O)CCC(=O)CCC(C)=O)NC(=O)[C@H](CCCNC(=N)N)NC(=O)CNC(=O)[C@H](CCCCN)NC(=O)[C@H](CC(C)C)NC(=O)[C@H](Cc1c[nH]cn1)NC(=O)CNC(=O)[C@@H]1CCCN1C(C)=O)C(=O)NCC(=O)N[C@@H](CC(C)C)C(=O)N[C@@H](Cc1c[nH]c2ccccc12)C(=O)N[C@@H](Cc1ccc(O)cc1)C(=O)N[C@@H](C)C(=O)N[C@@H](CCCNC(=O)CON)C(=O)N[C@@H](CCCCN)C(=O)N[C@@H](CCC(N)=O)C(=O)NCC(=O)N[C@@H](CCC(N)=O)C(=O)N[C@@H](CCCCN)C(=O)N[C@@H](CC(N)=O)C(=O)N[C@@H](CCCCN)C(N)=O
[1]; 38-membered ring
  ring closure, overall yield: 13.9%

## CC(=O)CCC(=O)CCC(=O)NCCC[C@H](NC(C)=O)C(=O)N[C@@H](Cc1c[nH]c2ccccc12)C(=O)N[C@@H](CCCNC(=N)N)C(=O)NCC(=O)N[C@@H](CC(=O)O)C(=O)N[C@@H](Cc1ccc(O)cc1)C(=O)N[C@@H](CO)C(=O)N[C@@H](CCCNC(=O)CCC(=O)NN)C(N)=O
[1]; 40-membered ring
  ring closure, overall yield: 4.3%

## CC[C@H](C)[C@H](NC(=O)[C@H](CCC(=O)O)NC(=O)[C@H](CCCNC(=N)N)NC(=O)CNC(=O)[C@H](CCCCN)NC(=O)[C@H](CC(C)C)NC(=O)[C@H](Cc1c[nH]cn1)NC(=O)CNC(=O)[C@@H]1CCCN1C(C)=O)C(=O)NCC(=O)N[C@@H](CC(C)C)C(=O)N[C@@H](Cc1c[nH]c2ccccc12)C(=O)N[C@@H](Cc1ccc(O)cc1)C(=O)N[C@@H](C)C(=O)N[C@@H](CCCNC(=O)CON)C(=O)N[C@@H](CCCCN)C(=O)N[C@@H](CCC(N)=O)C(=O)NCC(=O)N[C@@H](CCCNC(=O)CCC(=O)CCC(C)=O)C(=O)N[C@@H](CCCCN)C(=O)N[C@@H](CC(N)=O)C(=O)N[C@@H](CCCCN)C(N)=O
[1]; 29-membered ring
  ring closure, overall yield: 3.48%

## CC(=O)CCC(=O)CCC(=O)NCCC[C@H](NC(C)=O)C(=O)N[C@@H](Cc1c[nH]c2ccccc12)C(=O)N[C@@H](CCCNC(=N)N)C(=O)NCC(=O)N[C@@H](CC(=O)O)C(=O)N[C@@H](Cc1ccc(O)cc1)C(=O)N[C@@H](CO)C(=O)N[C@@H](CCCNC(=O)CNN)C(N)=O [Ac-Orn(4,7-dioxooctanoyl)*-W-R-G-D-Y-S-Orn(COCH2NHNH2)*-NH2]
[2]; 38-membered ring
  ring closure, overall yield: 16.7%

## CC[C@H](C)[C@H](NC(=O)[C@H](CCCNC(=O)CCC(=O)CCC(=O)c1ccc(OC)cc1)NC(=O)[C@H](CCCNC(=N)N)NC(=O)CNC(=O)[C@H](CCCCN)NC(=O)[C@H](CC(C)C)NC(=O)[C@H](Cc1c[nH]cn1)NC(=O)CNC(=O)[C@@H]1CCCN1C(C)=O)C(=O)NCC(=O)N[C@@H](CC(C)C)C(=O)N[C@@H](Cc1c[nH]c2ccccc12)C(=O)N[C@@H](Cc1ccc(O)cc1)C(=O)N[C@@H](C)C(=O)N[C@@H](CCCNC(=O)CNN)C(=O)N[C@@H](CCCCN)C(=O)N[C@@H](CCC(N)=O)C(=O)NCC(=O)N[C@@H](CCC(N)=O)C(=O)N[C@@H](CCCCN)C(=O)N[C@@H](CC(N)=O)C(=O)N[C@@H](CCCCN)C(N)=O
[2]; 38-membered ring
  ring closure, overall yield: 17.1%

## CC[C@H](C)[C@H](NC(=O)[C@H](CCC(=O)O)NC(=O)[C@H](CCCNC(=N)N)NC(=O)CNC(=O)[C@H](CCCCN)NC(=O)[C@H](CC(C)C)NC(=O)[C@H](Cc1c[nH]cn1)NC(=O)CNC(=O)[C@@H]1CCCN1C(C)=O)C(=O)NCC(=O)N[C@@H](CC(C)C)C(=O)N[C@@H](Cc1c[nH]c2ccccc12)C(=O)N[C@@H](Cc1ccc(O)cc1)C(=O)N[C@@H](C)C(=O)N[C@@H](CCCNC(=O)CNN)C(=O)N[C@@H](CCCCN)C(=O)N[C@@H](CCC(N)=O)C(=O)NCC(=O)N[C@@H](CCCNC(=O)CCC(=O)CCC(C)=O)C(=O)N[C@@H](CCCCN)C(=O)N[C@@H](CC(N)=O)C(=O)N[C@@H](CCCCN)C(N)=O
[2]; 29-membered ring
  ring closure, overall yield: 18.2%
